SMILES strings stand for the structures. Values after ≈ are worked out from the molar mass of the structure shown. Read-outs that look alike come from different tables or passages of the source.

The subject of assay [1] is chloroquine-resistant K1 strain of P. falciparum. Briefly: In vitro antimalarial semiautomated microdilution assay ([3H]-hypoxanthine incorporation), K1 strain. It counts as cell-based, Plasmodium falciparum. Conditions: Plasmodium falciparum. Put shortly: (§1)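 IC50 values come from Logit regression of [3H]-hypoxanthine uptake data. Parasites were intraerythrocytic P. falciparum forms taken from asynchronous stock cultures and tested by semiautomated microdilution.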
A general note: Dilution methods test growth across graded concentrations, often in twofold steps.

Assay [2] relates to chloroquine-sensitive NF54 strain of P. falciparum. Briefly: In vitro antimalarial semiautomated microdilution assay ([3H]-hypoxanthine incorporation), NF54 strain. Format: cell-based, Plasmodium falciparum. Conditions: Plasmodium falciparum. In short, it runs like this:
as §1

The test system of assay [3] is ANKA strain of P. berghei. Description: Single dose STI in vivo screen in infected mice. More on the design: species or system Plasmodium berghei. Conditions: for Survival (days) 10 mg/kg po: single 10 mg/kg po in 3% ethanol and 7% Tween 80; for Survival (days) 10 mg/kg po / Survival (days) 10 mg/kg SSV po / Survival (days) 10 mg/kg sc: untreated 6-7 days; for Survival (days) 10 mg/kg SSV po: single 10 mg/kg po in SSV; for Survival (days) 10 mg/kg sc: single 10 mg/kg sc in 3% ethanol and 7% Tween 80.

The mark [4] stands for this setting: chloroquine-resistant K1 strain, 72 h incubation, read-out: IC50 (ng/ml) K1.
Where [5] appears, read: chloroquine-sensitive NF54 strain, 72 h incubation, read-out: IC50 (ng/ml) NF54.
The mark [6] stands for this setting: single 10 mg/kg po in 3% ethanol and 7% Tween 80 on day 1 post-infection, percent reduction in parasitemia on day 3.
Setting [7] is: single 10 mg/kg po in standard suspending vehicle (SSV) on day 1 post-infection, percent reduction in parasitemia on day 3.
Where [8] appears, read: single 10 mg/kg sc in 3% ethanol and 7% Tween 80 on day 1 post-infection, percent reduction in parasitemia on day 3.
Where [9] appears, read: K1, 72 h, read-out: IC50 (ng/ml) K1, chloroquine-resistant K1 strain, 72 h incubation.
Setting [10] is: NF54, 72 h, read-out: IC50 (ng/ml) NF54, chloroquine-sensitive NF54 strain, 72 h incubation.

Take `c1ccc(CN2CCC3(CC2)OOC2(O3)C3CC4CC(C3)CC2C4)cc1` (centres unmarked) [OZ220, Adamantane-2-spiro-3′-8′-benzyl-1′,2′,4′-trioxa-8′-azaspiro[4.5]decane]: in assay [1] (setting [4]), the IC50 was determined as 6.9 ng/mL (≈ 0.0194 µM). In addition, the IC50 in assay [2] (setting [5]) stood at 4.9 ng/mL (≈ 0.0138 µM). In addition, in assay [3], the “Survival (days) 10 mg/kg po” value worked out at 6.0 days, the “Survival (days) 10 mg/kg SSV po” value is given as 5.3 days and the “Survival (days) 10 mg/kg sc” value came to 10.0 days. Also, the “Activity (%) 10 mg/kg po” value in assay [3] (setting [6]) was 40%. Moreover, the “Activity (%) 10 mg/kg SSV po” value in assay [3] (setting [7]) amounted to 0%. For the same molecule, the “Activity (%) 10 mg/kg sc” value in assay [3] (setting [8]) was determined as 99.95%.

For `CCOC(=O)CCC[C@H]1CC[C@]2(CC1)OOC1(O2)C2CC3CC(C2)CC1C3` (some centres unmarked) [OZ260], the IC50 in assay [1] (setting [4]) worked out at 5.6 ng/mL (≈ 0.0148 µM). Moreover, the IC50 in assay [2] (setting [5]) worked out at 4.3 ng/mL (≈ 0.0114 µM). Also, in assay [3], the “Survival (days) 10 mg/kg po” value is recorded as 6.7 days, the “Survival (days) 10 mg/kg SSV po” value is 7.0 days and the “Survival (days) 10 mg/kg sc” value worked out at 7.7 days. Further, the “Activity (%) 10 mg/kg po” value in assay [3] (setting [6]) turned out to be 72%. The “Activity (%) 10 mg/kg SSV po” value in assay [3] (setting [7]) came to 51%. In addition, the “Activity (%) 10 mg/kg sc” value in assay [3] (setting [8]) was 81%.

With `NC[C@H]1CC[C@@]2(CC1)OOC1(O2)C2CC3CC(C2)CC1C3` (some centres unmarked) [OZ269], the IC50 in assay [1] (setting [4]) is 0.32 ng/mL (≈ 0.00109 µM). Besides, in assay [2] (setting [5]), the IC50 stood at 0.61 ng/mL (≈ 0.00208 µM). In addition, in assay [3], the “Survival (days) 10 mg/kg po” value worked out at 10.7 days, the “Survival (days) 10 mg/kg SSV po” value was 11.3 days and the “Survival (days) 10 mg/kg sc” value is given as 9.0 days. In assay [3] (setting [6]), the “Activity (%) 10 mg/kg po” value was 98%. Besides, the “Activity (%) 10 mg/kg SSV po” value in assay [3] (setting [7]) is reported as 86%. In addition, in assay [3] (setting [8]), the “Activity (%) 10 mg/kg sc” value is listed as 99.92%.

In the case of `O=C1OC2(CCC3(CC2)OOC2(O3)C3CC4CC(C3)CC2C4)c2ccccc21` (centres unmarked) [OZ149, Adamantane-2-spiro-3′-1′,2′,4′-trioxaspiro[4.5]decane-8′-spiro-1″-3″-oxo-3″H-isobenzofuran], the IC50 in assay [1] (setting [4]) is 8 ng/mL (≈ 0.0209 µM). In addition, the IC50 in assay [2] (setting [5]) was 8.8 ng/mL (≈ 0.023 µM). In assay [3], the “Survival (days) 10 mg/kg po” value was 7.7 days, the “Survival (days) 10 mg/kg SSV po” value is 6.0 days and the “Survival (days) 10 mg/kg sc” value was determined as 14.3 days. Also, the “Activity (%) 10 mg/kg po” value in assay [3] (setting [6]) worked out at 64%. The “Activity (%) 10 mg/kg SSV po” value in assay [3] (setting [7]) was 3%. Besides, the “Activity (%) 10 mg/kg sc” value in assay [3] (setting [8]) is 87%.

For the molecule `CCOC(=O)c1ccc([C@H]2CC[C@]3(CC2)OOC2(O3)C3CC4CC(C3)CC2C4)cc1` (some centres unmarked) [OZ164], the IC50 was 9 ng/mL (≈ 0.0218 µM) in assay [1] (setting [9]) and greater than 10 ng/mL in assay [2] (setting [10]). Further, in assay [3] (setting [6]), the “Activity (%) 10 mg/kg po” value came out at 11%. The “Survival (days) 10 mg/kg SSV po” value in assay [3] is 5.7 days. Also, the “Activity (%) 10 mg/kg SSV po” value in assay [3] (setting [7]) worked out at 0%. The “Activity (%) 10 mg/kg sc” value in assay [3] (setting [8]) turned out to be 7%.

As to `O=C(NC[C@H]1CC[C@]2(CC1)OOC1(O2)C2CC3CC(C2)CC1C3)c1c[nH]cn1` (some centres unmarked) [OZ263], in assay [1] (setting [4]), the IC50 was 0.84 ng/mL (≈ 0.00217 µM). The IC50 in assay [2] (setting [5]) came out at 1.1 ng/mL (≈ 0.00284 µM). Besides, in assay [3], the “Survival (days) 10 mg/kg po” value worked out at 13.0 days, the “Survival (days) 10 mg/kg SSV po” value was found to be 13.3 days and the “Survival (days) 10 mg/kg sc” value was 11.0 days. In addition, in assay [3] (setting [6]), the “Activity (%) 10 mg/kg po” value stood at 99.53%. Also, in assay [3] (setting [7]), the “Activity (%) 10 mg/kg SSV po” value is 99.45%. In addition, in assay [3] (setting [8]), the “Activity (%) 10 mg/kg sc” value stood at 99.92%.

Regarding `O=CN1CCN(C(=O)C[C@H]2CC[C@]3(CC2)OO[C@]2(O3)C3CC4CC(C3)CC2C4)CC1` [OZ294], the IC50 in assay [1] (setting [4]) was 0.39 ng/mL (≈ 0.000932 µM); in assay [2] (setting [5]), 0.63 ng/mL (≈ 0.00151 µM). Moreover, the “Survival (days) 3 mg/kg SSV po” value in assay [3] (single 3 mg/kg po in SSV) is 7.4 days. For the same molecule, the “Activity (%) 3 mg/kg SSV po” value in assay [3] (single 3 mg/kg po in SSV, percent reduction in parasitemia on day 3) worked out at 70%. In addition, in assay [3], the “Survival (days) 10 mg/kg SSV po” value is reported as 8.6 days. In assay [3] (setting [7]), the “Activity (%) 10 mg/kg SSV po” value amounted to 99.79%.

As for `O=C1c2ccccc2C(=O)N1CC[C@H]1CC[C@]2(CC1)OOC1(O2)C2CC3CC(C2)CC1C3` (some centres unmarked) [OZ215], the IC50 in assay [1] (setting [4]) was found to be 6.4 ng/mL (≈ 0.0146 µM). Further, the IC50 in assay [2] (setting [5]) is 7.3 ng/mL (≈ 0.0167 µM). Besides, in assay [3] (po, 10 mg/kg), the “Activity (%) 10 mg/kg SSV po” value is on record as 25% and the “Activity (%) 10 mg/kg po” value came to 96%. Further, in assay [3] (sc, 10 mg/kg), the “Activity (%) 10 mg/kg sc” value was 39%. In addition, in assay [3], the “Survival (days) 10 mg/kg po” value was determined as 9.7 days, the “Survival (days) 10 mg/kg SSV po” value is reported as 6.3 days and the “Survival (days) 10 mg/kg sc” value is listed as 7.0 days.

On to `COCC(=O)N(Cc1ccccc1)C1CCC2(CC1)OOC1(O2)C2CC3CC(C2)CC1C3` (centres unmarked) [OZ173], for which the IC50 in assay [1] (setting [9]) was determined as 58 ng/mL (≈ 0.131 µM). Moreover, the IC50 in assay [2] (setting [10]) amounted to 32 ng/mL (≈ 0.0725 µM). Besides, in assay [3], the “Survival (days) 10 mg/kg po” value is 7.0 days, the “Survival (days) 10 mg/kg SSV po” value was 6.7 days and the “Survival (days) 10 mg/kg sc” value is given as 9.7 days. Also, the “Activity (%) 10 mg/kg po” value in assay [3] (setting [6]) is on record as 15%. Further, in assay [3] (setting [7]), the “Activity (%) 10 mg/kg SSV po” value turned out to be 0%. The “Activity (%) 10 mg/kg sc” value in assay [3] (setting [8]) is on record as 80%.

Source of the values: patent US6825230B2, “Spiro and dispiro 1,2,4-trixolane antimalarials” (Medicines for Malaria Venture MMV, priority 2002, dated 2004).
